Like-named read-outs stand apart in the source and are kept apart here.
Tests used:
NAMPT = NAMPT (Homo sapiens (Human), UniProt P43490); assay: NAMPT biochemical inhibition assay (NMN quantified by mass spectrometry); conditions: NAMPT biochemical inhibition; read-out: Biochem IC50
A2780 cells = assay: In-vitro cell proliferation assay (SRB), A2780 cells; format: cell-based; conditions: A2780 cells, 72 hours, SRB, read-out: A2780 IC50;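 also: viable cell number read as SRB absorbance, background from media-only wells subtracted, IC50 interpolated from percent inhibition at two bracketing compound concentrations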

NAMPT, sequence (P43490 whole entry): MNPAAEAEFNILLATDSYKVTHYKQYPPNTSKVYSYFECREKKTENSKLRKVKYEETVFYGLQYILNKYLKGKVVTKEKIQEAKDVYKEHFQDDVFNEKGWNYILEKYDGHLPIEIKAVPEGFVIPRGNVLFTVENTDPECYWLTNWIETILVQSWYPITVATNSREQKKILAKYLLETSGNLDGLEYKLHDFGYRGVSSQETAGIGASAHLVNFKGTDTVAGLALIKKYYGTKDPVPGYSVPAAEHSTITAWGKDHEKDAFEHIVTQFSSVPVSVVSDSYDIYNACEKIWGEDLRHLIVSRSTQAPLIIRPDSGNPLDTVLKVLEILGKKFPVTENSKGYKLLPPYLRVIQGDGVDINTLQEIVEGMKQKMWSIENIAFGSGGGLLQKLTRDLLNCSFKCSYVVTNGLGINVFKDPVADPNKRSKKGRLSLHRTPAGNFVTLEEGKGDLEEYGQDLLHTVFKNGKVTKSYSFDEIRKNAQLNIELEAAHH

| IC50 (NAMPT) | IC50 (A2780 cells; Homo sapiens, A2780, 72 h) | SMILES | IC50 (A2780 cells) |
| --- | --- | --- | --- |
| 4 nM | 100 to 1000 nM | O=C(NCc1cccnc1)Nc1ccc(S(=O)(=O)c2ccc(C(F)(F)F)c(Cl)c2)cc1 [3-(4-{[3-chloro-4-(trifluoromethyl)benzene]sulfonyl}phenyl)-1-(pyridin-3-ylmethyl)urea] | – |
| 4 nM | 54 nM | O=C(NCc1cccnc1)Nc1ccc(S(=O)(=O)Nc2ccc(N3CCCCC3)cc2)cc1 [1-(4-{[4-(piperidin-1-yl)phenyl]sulfamoyl}phenyl)-3-(pyridin-3-ylmethyl)urea] | – |
| 2 nM | 4 nM | COc1ccc(F)cc1S(=O)(=O)c1ccc(NC(=O)NCc2cccnc2)cc1 [3-{4-[(5-fluoro-2-methoxybenzene)sulfonyl]phenyl}-1-(pyridin-3-ylmethyl)urea] | – |
| 1 nM | 33 nM | COc1ccc(F)cc1NS(=O)(=O)c1ccc(NC(=O)NCc2cccnc2)cc1 [3-{4-[(5-fluoro-2-methoxyphenyl)sulfamoyl]phenyl]-1-(pyridin-3-ylmethyl)urea] | – |
| 3 nM | 74.9 nM | CN(C)c1ccc(S(=O)(=O)c2ccc(NC(=O)NCc3cccnc3)cc2)cn1 [3-{4-[6-(dimethylamino)pyridine-3-sulfonyl]phenyl}-1-(pyridin-3-ylmethyl)urea] | – |
| 1.7 nM | 29.1 nM | CC(C)Oc1ccc(S(=O)(=O)c2ccc(NC(=O)NCc3cccnc3)cc2)cc1 [3-(4-{[4-(propan-2-yloxy)benzene]sulfonyl[phenyl)-1-(pyridin-3-ylmethyl)urea] | – |
| 2 nM | 60 nM | COC[C@@H]1CCCN1S(=O)(=O)c1ccc(NC(=O)NCc2cccnc2)cc1 [3-{4-[(2S)-2-(methoxymethyl)pyrrolidine-1-sulfonyl]phenyl}-1-(pyridin-3-ylmethyl)urea] | – |
| 467 nM | 8.58 nM | O=C(NCc1ccc2nccn2c1)c1ccc(S(=O)(=O)Nc2cccc(OC(F)(F)F)c2)cc1 [N-{imidazo[1,2-a]pyridin-6-ylmethyl}-4-{[3-(trifluoromethoxy)phenyl]sulfamoyl}benzamide] | – |
| 5 nM | 53 nM | CN(C)C(=O)c1ccc(S(=O)(=O)c2ccc(NC(=O)NCc3cccnc3)cc2)cc1 [N,N-dimethyl-4-[(4-{[(pyridin-3-ylmethyl)carbamoyl]amino}benzene)sulfonyl]benzamide] | – |
| 3 nM | 29 nM | O=C(NCc1cccnc1)Nc1ccc(S(=O)(=O)N2CCN(c3c(Cl)cncc3Cl)CC2)cc1 [3-{4-[4-(3,5-dichloropyridin-4-yl)piperazine-1-sulfonyl]phenyl}-1-(pyridin-3-ylmethyl)urea] | – |
| 1.6 nM | 86 nM | CCCS(=O)(=O)Nc1cccc(S(=O)(=O)c2ccc(NC(=O)NCc3cccnc3)cc2)c1 [3-(4-{[3-(propane-1-sulfonamido)benzene]sulfonyl}phenyl)-1-(pyridin-3-ylmethyl)urea] | – |
| 3 nM | 214 nM | O=C(NCc1cccnc1)Nc1ccc(S(=O)(=O)c2ccc(F)c(F)c2)cc1 [3-{4-[(3,4-difluorobenzene)sulfonyl]phenyl}-1-(pyridin-3-ylmethyl)urea] | – |
| 4 nM | 343 nM | O=C(NCc1cccnc1)Nc1ccc(S(=O)(=O)N2CCC3(CCCC3)CC2)cc1 [1-(4-{8-azaspiro[4.5]decane-8-sulfonyl}phenyl)-3-(pyridin-3-ylmethyl)urea] | – |
| 2.2 nM | 100 to 1000 nM | O=C(NCc1cccnc1)Nc1ccc(S(=O)(=O)c2ccc(OCC(F)(F)F)c(F)c2)cc1 [3-(4-{[3-fluoro-4-(2,2,2-trifluoroethoxy)benzene]sulfonyl}phenyl)-1-(pyridin-3-ylmethyl)urea] | – |
| 3 nM | 6 nM | CC(C)c1ccc(S(=O)(=O)c2ccc(NC(=O)NCc3cccnc3)cc2)c(Cl)n1 [3-{4-[2-chloro-6-(propan-2-yl)pyridine-3-sulfonyl]phenyl}-1-(pyridin-3-ylmethyl)urea] | – |
| 3 nM | 31 nM | COc1ccc(C(C)C)cc1S(=O)(=O)c1ccc(NC(=O)NCc2cccnc2)cc1 [3-(4-{[2-methoxy-5-(propan-2-yl)benzene]sulfonyl}phenyl)-1-(pyridin-3-ylmethyl)urea] | – |
| 11 nM | 488 nM | O=C(NCc1cccnc1)Nc1ccc(S(=O)(=O)c2ccncc2)cc1 [3-(pyridin-3-ylmethyl)-1-[4-(pyridine-4-sulfonyl)phenyl]urea] | – |

| IC50 (NAMPT) | IC50 (A2780 cells; Homo sapiens, A2780, 72 h) | SMILES | IC50 (A2780 cells) |
| --- | --- | --- | --- |
| 1.7 nM | 100 to 1000 nM | COc1cc(F)cc(S(=O)(=O)c2ccc(NC(=O)NCc3cccnc3)cc2)c1 [3-{4-[(3-fluoro-5-methoxybenzene)sulfonyl]phenyl}-1-(pyridin-3-ylmethyl)urea] | – |
| 0.8 nM | 39 nM | O=C(NCc1cccnc1)Nc1ccc(S(=O)(=O)Nc2ccccc2I)cc1 [3-{4-[(2-iodophenyl)sulfamoyl]phenyl}-1-(pyridin-3-ylmethyl)urea] | – |
| 8 nM | 97 nM | COc1ccccc1CNS(=O)(=O)c1ccc(NC(=O)NCc2cccnc2)cc1 [3-(4-{[(2-methoxyphenyl)methyl]sulfamoyl}phenyl)-1-(pyridin-3-ylmethyl)urea] | – |
| 2 nM | 450 nM | Cc1ccccc1S(=O)(=O)c1ccc(NC(=O)NCc2cccnc2)cc1 [3-{4-[(2-methylbenzene)sulfonyl]phenyl}-1-(pyridin-3-ylmethyl)urea] | – |
| 5 nM | 45 nM | CCN(CC)C(=O)CN1CCN(S(=O)(=O)c2ccc(NC(=O)NCc3cccnc3)cc2)CC1 [N,N-diethyl-2-{4-[(4-{[(pyridin-3-ylmethyl)carbamoyl]amino}benzene)sulfonyl]piperazin-1-yl}acetamide] | – |
| 3 nM | 29 nM | O=C(NCc1cccnc1)Nc1ccc(S(=O)(=O)N2CCC[C@H](C(F)(F)F)C2)cc1 [1-(pyridin-3-ylmethyl)-3-{4-[(3S)-3-(trifluoromethyl)piperidine-1-sulfonyl]phenyl}urea] | – |
| 1140 nM | > 30000 nM | O=C(NCc1cncnc1)Nc1ccc(S(=O)(=O)N2CCCCC2)cc1 [3-[4-(piperidine-1-sulfonyl)phenyl]-1-(pyrimidin-5-ylmethyl)urea] | – |
| 9370 nM | 374 nM | O=C(NCCc1cccnc1)c1ccc(S(=O)(=O)c2cccc(OC(F)(F)F)c2)cc1 [N-[2-(pyridin-3-yl)ethyl]-4-{[3-(trifluoromethoxy)benzene]sulfonyl}benzamide] | – |
| 1 nM | 59.9 nM | Cn1ncc2c(S(=O)(=O)c3ccc(NC(=O)NCc4cccnc4)cc3)cccc21 [3-[4-(1-methyl-1H-indazole-4-sulfonyl)phenyl]-1-(pyridin-3-ylmethyl)urea] | – |
| 1.6 nM | 13.4 nM | O=C(NCc1cccnc1)Nc1ccc(S(=O)(=O)c2cccc3[nH]ccc23)cc1 [1-[4-(1H-indole-4-sulfonyl)phenyl]-3-(pyridin-3-ylmethyl)urea] | – |
| 3.7 nM | 44.6 nM | COc1cc(S(=O)(=O)c2ccc(NC(=O)NCc3cccnc3)cc2)ccc1F [3-{4-[(4-fluoro-3-methoxybenzene)sulfonyl]phenyl}-1-(pyridin-3-ylmethyl)urea] | – |
| 8 nM | 352 nM | COc1ccc(S(=O)(=O)c2ccc(NC(=O)NCc3cccnc3)cc2)c(C)c1 [3-{4-[(4-methoxy-2-methylbenzene)sulfonyl]phenyl}-1-(pyridin-3-ylmethyl)urea] | – |
| 1 nM | 83 nM | O=C(NCc1cccnc1)Nc1ccc(S(=O)(=O)c2cccc(OC(F)(F)F)c2)cc1 [1-(pyridin-3-ylmethyl)-3-(4-{[3-(trifluoromethoxy)benzene]sulfonyl}phenyl)urea] | – |
| 6.3 nM | 100 to 1000 nM | O=C(NCc1cccnc1)Nc1ccc(S(=O)(=O)c2cc(OC(F)(F)F)ccc2Cl)cc1 [3-(4-{[2-chloro-5-(trifluoromethoxy)benzene]sulfonyl}phenyl)-1-(pyridin-3-ylmethyl)urea] | – |
| 2.9 nM | 1.8 nM | O=C(NCc1cccnc1)Nc1ccc(S(=O)(=O)c2cccc3c2Oc2ccccc2S3)cc1 [1-[4-(phenoxathiine-4-sulfonyl)phenyl]-3-(pyridin-3-ylmethyl)urea] | – |
| 6.7 nM | 21 nM | COc1ncc(S(=O)(=O)c2ccc(NC(=O)NCc3cccnc3)cc2)c(OC)n1 [3-[4-(2,4-dimethoxypyrimidine-5-sulfonyl)phenyl]-1-(pyridin-3-ylmethyl)urea] | – |
| 6 nM | 14 nM | CC1CC(C)CN(S(=O)(=O)c2ccc(NC(=O)NCc3cccnc3)cc2)C1 (stereo not drawn) [1-[4-(3,5-dimethylpiperidine-1-sulfonyl)phenyl]-3-(pyridin-3-ylmethyl)urea] | – |

| SMILES | IC50 (NAMPT) | IC50 (A2780 cells; Homo sapiens, A2780, 72 h) | IC50 (A2780 cells) |
| --- | --- | --- | --- |
| O=C(NCc1cccnc1)Nc1ccc(S(=O)(=O)N2CCN(C(=O)[C@H]3CCCO3)CC2)cc1 [1-[4-(4-{[(2R)-oxolan-2-yl]carbonyl[piperazine-1-sulfonyl)phenyl]-3-(pyridin-3-ylmethyl)urea] | 8 nM | – | 30 nM |
| O=C(NCc1ccc[n+]([O-])c1)Nc1ccc(S(=O)(=O)c2ccc(Cl)cc2)cc1 [3-{[({4-[(4-chlorobenzene)sulfonyl]phenyl}carbamoyl)amino]methyl}pyridin-1-ium-1-olate] | 728 nM | – | > 30000 nM |
| O=C(NCc1cccnc1)Nc1ccc(S(=O)(=O)c2cc(F)cc(OCC(F)(F)F)c2)cc1 [3-(4-{[3-fluoro-5-(2,2,2-trifluoroethoxy)benzene]sulfonyl]phenyl)-1-(pyridin-3-ylmethyl)urea] | 1.1 nM | – | 29.7 nM |
| CCN(CC)C(=O)[C@H]1CCCN(S(=O)(=O)c2ccc(NC(=O)NCc3cccnc3)cc2)C1 [(3S)-N,N-diethyl-1-[(4-{[(pyridin-3-ylmethyl)carbamoyl]amino}benzene)sulfonyl]piperidine-3-carboxamide] | 6 nM | – | 25 nM |
| O=C(NCc1cccnc1)Nc1ccc(S(=O)(=O)c2ccc(F)c(OCC(F)(F)F)c2)cc1 [3-(4-{[4-fluoro-3-(2,2,2-trifluoroethoxy)benzene]sulfonyl[phenyl)-1-(pyridin-3-ylmethyl)urea] | 2.1 nM | – | 23.4 nM |
